Measurements published in patent publication US11517540B2, “Restoring physiology in iron-deficient organisms using small molecules” (The Board of Trustees of the University of Illinois, priority 2015, dated 2022).
“Also recorded” adds a separate entry of the source. Where no end group is shown, it is not given here.

Key:
[1] = test system: Reticulocytes isolated ex vivo from DMT1-deficient Belgrade (b/b) rats; experiment: 59Fe incorporation into heme in reticulocytes isolated ex vivo; settings: for 59Fe incorporation into heme: plasma spiked with 59Fe-transferrin, b/b reticulocytes
Protocol: The capacity for hinokitiol to restore hemoglobinization in DMT1-deficient erythroid progenitors was evaluated. Reticulocytes isolated ex vivo from DMT1-deficient Belgrade (b/b) and healthy (+/b) rats were incubated in plasma spiked with ^59Fe-transferrin to assess hinokitiol's ability to promote iron utilization.
The use of these MEL cells allowed us to test the hypothesis that hinokitiol autonomously transports iron down pre-existing concentration gradients. To do this, we utilized live cell fluorescence imaging with iron-specific dyes to visualize intracellular iron distribution.

[2] = Release of iron from POPC liposomes
Source text: (§1) FIG. 5 illustrates the biophysical characterization of hinokitiol.

[3] = test system: Mitoferrin-deficient MEL cell lines; experiment: Hemoglobinization and 55Fe use in mitoferrin-deficient MEL cells; assay type: cell-based, murine; settings: for hemoglobinization: conditions identical to DMT1-deficient cells
[4] = test system: DMT1-deficient Caco-2 epithelia monolayers; experiment: 55Fe uptake and transepithelial transport in DMT1-deficient Caco-2 monolayers; settings: for 55Fe uptake into cells / transepithelial 55Fe transport: shDMT1 monolayers, apical addition
Source text: (§2) In normal epithelia, iron brought into the cell via apical DMT1 transporters is stored in cytosolic ferritin clusters and directionally exported through the basolateral membrane by FPN1. Transepithelial iron flux via this network of proteins is regulated by the iron response element which is sensitive to intracellular iron concentrations.

[5] = Iron binding (UV trace after addition of iron); assay type: physicochemical
Source text: as §1

[6] = test system: DMT1-deficient Belgrade (b/b) rats; experiment: Chronic exposure of Belgrade (b/b) rats in rat chow: hematocrit; assay type: in vivo; settings: for hematocrit after one month of treatment: 0.2% in rat chow (˜100 mg/kg/day)
Source text: (§3) Belgrade (b/b) rats (FIG. 3, panel (A)) are the leading model of the disease and display severe hematological defects such as decreased hematocrit values amongst other markers.

[7] = test system: DMT1-deficient MEL cells; experiment: Differentiation / hemoglobinization of DMT1-deficient MEL cells (o-dianisidine staining); settings: for differentiation (staining of hemoglobinized cells with o-dianisidine): 2% DMSO induction
Source text: To gain a better fundamental understanding of this phenomenon, DS19 murine erythroleukemia (MEL) cells were used. These terminally differentiate toward developing erythrocytes after induction with 2% DMSO leading to increased iron uptake and globin expression. DMT1-deficient cell lines through shRNA knockdown were developed (FIG. 7, panel (B)).

[8] = test system: hino-rescued yeast; experiment: Sensitivity of hinokitiol-rescued yeast to chemical inhibitors; assay type: cell-based, S. cerevisiae; settings: ebselen: Pma1; bafilomycin: V-ATPase; caspofungin: off-pathway cell wall biosynthesis
[9] = Source text: as §1
[10] = Toxicity and pharmacokinetic half-life in healthy rats
Source text: as §3

[11] = test system: J774 macrophages; assay type: cell-based
Protocol: To test the capacity for hinokitiol to restore iron release in FPN1 deficiencies, J774 macrophages were utilized. J774 cells with ^55Fe-transferrin were incubated in the absence or presence of hepcidin. Hepcidin is a key iron regulator, down-regulating FPN1 by promoting its degradation.

[12] = Permeability assays; assay type: in vitro ADME; settings: not told
Source text: This was sustained for >2 months.

[13] = test system: DMT1-deficient MEL cells; experiment: Live cell fluorescence imaging of intracellular iron distribution with iron-specific dyes; assay type: cell-based, murine
[14] = test system: S. cerevisiae missing the iron transporting complex Fet3Ftr1 (fet3Δftr1Δ); experiment: Modified functional complementation: growth rescue of iron transporter-deficient yeast; assay type: cell-based
Protocol: To identify small molecules which perform such transport, a modified functional complementation experiment was performed. […] Growth restoration is not due to generic hormetic effects (FIG. 4, panel (D)) and can be sustained >40 days with continued reliance on hinokitiol (FIG. 4, panel (E)).

[15] = test system: TMEM14CΔ; experiment: Hemoglobinization in heme biosynthesis-deficient (TMEM14CΔ) cells; assay type: cell-based
[16] = 0.2% of feed, 13 weeks orally; cited from earlier work
[17] = test system: FPN1; experiment: 55Fe uptake and transepithelial transport in control Caco-2 monolayers with FPN1 down-regulated by quercetin; assay type: cell-based, human
Source text: as §2

[18] = control monolayers treated with quercetin

For `CC(C)c1cccc(=O)cc1` [C2deOHino, C2-deoxy hinokitiol], the “59Fe incorporation into heme” value [1] was “no apparent effect”, the “iron transport (release of iron from POPC liposomes)” value [2] was “ablated iron binding and transport; also recorded: does not bind or transport iron; also recorded: do not” and the “55Fe incorporation into heme” value [3] was “did not produce these effects”. The 55Fe uptake [3] was “did not produce these effects”, the hemoglobinization [3] was “did not produce these effects” and the “55Fe uptake into cells” value ([4]; hinokitiol 500 nM) was “unable to promote uptake or transport”. The “transepithelial 55Fe transport” value ([4]; hinokitiol 500 nM) was “unable to promote uptake or transport”, the iron binding [5] was “ablated iron binding and transport; also recorded: does not bind or transport iron; also recorded: does not” and the “hematocrit after one month of treatment” value [6] was “low hematocrits normally observed for untreated b/b rats”. For the same compound, the “differentiation (staining of hemoglobinized cells with o-dianisidine)” value ([7]; shDMT1 MEL cells, 72 hours) was “unable to restore physiology in any case”.
With `CO/C1=C\C(C)=C\[C@@H](C)[C@@H](O)[C@@H](C)C/C(C)=C/C=C/[C@H](OC)[C@@H]([C@@H](C)[C@@H](O)[C@H](C)[C@@]2(O)C[C@@H](O)[C@H](C)[C@@H](C(C)C)O2)OC1=O` [bafilomycin] the “sensitivity of hino-rescued yeast to chemical inhibition” value [8] was “exceptionally sensitive”.
For `CC[C@H](C)C[C@H](C)CCCCCCCCC(=O)N[C@H]1C[C@@H](O)[C@@H](NCCN)NC(=O)[C@@H]2[C@@H](O)CCN2C(=O)[C@H]([C@H](O)CCN)NC(=O)[C@H]([C@H](O)[C@@H](O)c2ccc(O)cc2)NC(=O)[C@@H]2C[C@@H](O)CN2C(=O)[C@H]([C@@H](C)O)NC1=O` [caspofungin], the “sensitivity of hino-rescued yeast to chemical inhibition” value [8] was “equi-sensitive”.
For `Cc1c(O)c(=O)ccn1C` [deferiprone, reference compound], the “solubility in hexanes / partitioning into water” value [9] was “partition primarily into water”, the “55Fe uptake into cells” value ([4]; hinokitiol 500 nM) was “unable to promote uptake or transport” and the “transepithelial 55Fe transport” value ([4]; hinokitiol 500 nM) was “unable to promote uptake or transport”.
In the case of `CC(C)c1cccc(=O)c(O)c1` [hinokitiol, 2-hydroxy-6-propan-2-ylcyclohepta-2,4,6-trien-1-one], the hemolysis ([1]; at concentrations increasing heme incorporation) is reported as “did not cause hemolysis”, the “59Fe incorporation into heme” value [1] is reported as “increased ^59Fe incorporation into heme in a dose-dependent fashion; also recorded: restored incorporation of ^59Fe into heme” and the “iron transport (release of iron from POPC liposomes)” value [2] is reported as “confirmed; also recorded: promotes the release of iron from POPC liposomes”. For the same compound, the “55Fe incorporation into heme” value [3] was “increases in ^55Fe uptake and incorporation into heme”, the 55Fe uptake [3] was “increases in ^55Fe uptake and incorporation into heme” and the hemoglobinization [3] was “restored hemoglobinization”. The pharmacokinetic half life ([10]; IP injection in F344 rats) was “reasonable pharmacokinetic half life”, the “toxicity in healthy rats” value ([10]; rat, in vivo) was “relatively non-toxic” and the “DMT1 expression after hinokitiol” value [4] was “independent of DMT1 expression; also recorded: does not induce expression of DMT1”. For the same compound, the “55Fe uptake as function of hinokitiol dosage” value ([4]; DMT1-deficient monolayers) was “proportional to the hinokitiol dosage”, the “transepithelial 55Fe transport at high hinokitiol concentrations” value ([4]; DMT1-deficient monolayers) was “reduced when a high intracellular iron concentration is reached” and the “basolateral to apical iron transport” value ([4]; basolateral addition of 55Fe and hinokitiol) was “failed to promote transport of iron from the basolateral to the apical side”. The monolayer integrity ([4]; hinokitiol 500 nM) was “without disrupting monolayer integrity”, the “55Fe incorporation into ferritin” value ([4]; immunoprecipitation of ferritin after apical 55Fe, DMT1-deficient monolayers) was “restored high incorporation of ^55Fe into ferritin” and the “uptake and transport at range of pH” value ([4]; pHs observed throughout the duodenum) was “maintained at a range of pHs observed throughout the duodenum”. The “55Fe uptake into cells” value ([4]; hinokitiol 500 nM) was “restored”, the “transepithelial 55Fe transport” value ([4]; hinokitiol 500 nM) was “restored” and the iron binding [5] was “confirmed; also recorded: binds iron”. The toxicity [11] was “without observable toxicity”, the “release of intracellular iron” value ([11]; J774 cells with 55Fe-transferrin, FPN1 down-regulated with hepcidin) was “released this intracellular iron back to normal levels in dose-dependent fashion” and the “oral bioavailability in vivo suggested by permeability assays” value [12] was “good oral bioavailability”. For the same compound, the “cytosolic iron levels (calcein green)” value [13] was “increased cytosolic and mitochondrial levels”, the “endosomal iron levels (oxyburst green)” value [13] was “decreased endosomal iron levels” and the “mitochondrial iron levels (RPA)” value [13] was “increased cytosolic and mitochondrial levels”. The “time over which growth restoration can be sustained” value ([14]; continued reliance on hinokitiol) was over 40 days, the “restoration of cell growth” value ([14]; fet3Δftr1Δ yeast) was “restored cell growth” and the “growth level relative to wild type” value ([14]; hinokitiol-treated fet3Δftr1Δ yeast, liquid media) was “grow to wild type levels”. For the same compound, the “influx of 55Fe into cells” value ([14]; yeast) was “restoration of influx of ^55Fe into cells”, the “time over which hematocrit restoration was sustained” value ([6]; 0.2% in rat chow) was over 2 months and the “hematocrit after one month of treatment” value ([6]; 100 mg/kg/day) was “restored hematocrit to b/b rats to levels that are no longer considered anemic; also recorded: restores hematocrit to non-anemic values”. The “hematocrit after four weeks of treatment” value ([6]; 0.2% of feed, ˜125 mg/kg each day) was “significant increases in hematocrit”, the hemoglobinization [15] was “did not restore hemoglobinization” and the lethality [16] was “non-lethal”. For the same compound, the “restoration of transepithelial transport in FPN1 down-regulated monolayers” value ([17]; quercetin-treated monolayers plus hinokitiol) was “unable to restore transepithelial transport”, the “differentiation without DMSO induction” value ([7]; no DMSO induction) was “unable to promote differentiation without DMSO induction” and the “differentiation (staining of hemoglobinized cells with o-dianisidine)” value ([7]; shDMT1 MEL cells, 72 hours) was “restored differentiation”. The toxicity ([7]; shDMT1 MEL cells, 72 hours) was “without toxicity”.
With `Cc1ncc(CO)c(C=NNC(=O)c2ccncc2)c1O` [pyridoxal isonicotinoyl hydrazone, reference compound] the “55Fe uptake into cells” value ([4]; hinokitiol 500 nM) was “unable to promote uptake or transport” and the “transepithelial 55Fe transport” value ([4]; hinokitiol 500 nM) was “unable to promote uptake or transport”.
For `O=c1c(O)c(-c2ccc(O)c(O)c2)oc2cc(O)cc(O)c12` [quercetin], the “transepithelial transport after FPN1 down-regulation” value [17, 18] was “decreased transepithelial transport” and the “uptake after FPN1 down-regulation” value [17, 18] was “without affecting uptake”.
In the case of `CC(C)c1cccc([O-])c(=O)c1.CC(C)c1cccc([O-])c(=O)c1.CC(C)c1cccc([O-])c(=O)c1.[Fe+3]` [tris(hinacolato) iron (III)], the “partitioning of iron complex into octanol” value [9] is reported as “predominantly partitions into octanol” and the “solubility in hexanes / partitioning into water” value [9] is reported as “soluble in hexanes”.
For “hepcidin: key iron regulator, down-regulating FPN1 by promoting its degradation (DTHFPICIFCCGCCHRSKCGMCCKT; ends and bridges not checked; cysteine pairing not given here; UniProt P81172 60-84, looked up) [reference compound]”, the “iron release after FPN1 down-regulation” value ([11]; J774 cells with 55Fe-transferrin, presence of hepcidin) was “reduced iron release”.
